Laboratory results published in patent US10633338B2, “Binding Function 3 (BF3) site compounds as therapeutics and methods for their use” (THE UNIVERSITY OF BRITISH COLUMBIA, priority 2014, dated 2020).
Read-outs that look alike come from different tables or passages of the source.

Key:
androgen receptor (AR) = molecular target: T1, androgen receptor (AR) (Homo sapiens, UniProt P10275, T878A); test: eGFP cellular AR transcription assay; assay type: cell-based; details: LN-ARR2PBeGFP LNCaP cells, 0.1 nM R1881, 3 days incubation; for IC50: read-out: eGFP IC50
T1 construct: stably transfected eGFP-expressing LNCaP human prostate cancer cells (LN-ARR2PB-eGFP) containing an androgen responsive probasin-derived promoter; endogenous in cells; host or cells: LNCaP (LN-ARR2PB-eGFP)
T1 sequence (P10275 1-920 T878A): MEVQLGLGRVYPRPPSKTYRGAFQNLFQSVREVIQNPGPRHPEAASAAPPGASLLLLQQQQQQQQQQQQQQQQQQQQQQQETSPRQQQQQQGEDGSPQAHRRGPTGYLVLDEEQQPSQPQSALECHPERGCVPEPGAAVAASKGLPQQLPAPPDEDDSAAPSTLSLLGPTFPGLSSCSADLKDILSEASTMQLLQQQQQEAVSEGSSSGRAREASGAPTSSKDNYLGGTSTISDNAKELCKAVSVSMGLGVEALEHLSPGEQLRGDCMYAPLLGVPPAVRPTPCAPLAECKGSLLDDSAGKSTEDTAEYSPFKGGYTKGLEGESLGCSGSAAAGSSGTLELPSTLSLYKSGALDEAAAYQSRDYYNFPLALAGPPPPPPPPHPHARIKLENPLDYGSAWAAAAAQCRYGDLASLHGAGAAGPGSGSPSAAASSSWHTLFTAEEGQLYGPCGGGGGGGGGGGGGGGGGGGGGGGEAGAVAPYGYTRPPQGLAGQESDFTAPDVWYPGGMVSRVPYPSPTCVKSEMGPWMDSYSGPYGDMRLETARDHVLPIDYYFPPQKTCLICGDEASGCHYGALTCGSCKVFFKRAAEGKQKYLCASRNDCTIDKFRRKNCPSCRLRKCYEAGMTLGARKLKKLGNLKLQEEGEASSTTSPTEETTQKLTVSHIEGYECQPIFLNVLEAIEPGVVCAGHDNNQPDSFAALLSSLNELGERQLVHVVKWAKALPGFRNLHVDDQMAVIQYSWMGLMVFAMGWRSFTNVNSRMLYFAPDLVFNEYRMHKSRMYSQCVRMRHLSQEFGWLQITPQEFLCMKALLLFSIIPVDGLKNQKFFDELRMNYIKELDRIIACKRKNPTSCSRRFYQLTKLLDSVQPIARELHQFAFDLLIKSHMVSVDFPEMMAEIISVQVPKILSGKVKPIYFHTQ
Method: After 5 days, the cells were plated into a 96-well plate (35,000 cells/well) with 0.1 nM of the synthetic androgen R1881 and increasing concentrations (0-100 μM) of compound.
After 5 days, the cells were plated into a 96-well plate (35,000 cells/well) with 0.1 nM R1881 and increasing concentrations (0-100 μM) of compound.
In this assay, the expression of eGFP is under the control of an androgen responsive probasin-derived promoter and can quantify AR transcriptional activity.

PSA = test: Prostate Surface Antigen (PSA) assay, PSA excreted into the media; assay type: cell-based, human
Method: The evaluation of PSA excreted into the media was performed in parallel to the eGFP assay using the same plates (see above description). After the cells were incubated for 3 days 150 μl of the media was taken from each well, and added to 150 μl of PBS.

[1] = PSA excreted into media, same plates as eGFP assay, 3 days incubation
[2] = Homo sapiens, 72 h, PSA excreted into media, same plates as eGFP assay, 3 days incubation, read-out: PSA IC50
[3] = PSA excreted into media, same plates as eGFP assay, 3 days incubation, read-out: PSA IC50

Cc1cc(C)c2[nH]cc(-c3ccc4cc(F)ccc4n3)c2c1 [Compound 13599]
eGFP IC50 (androgen receptor (AR)): Inactive
PSA IC50 (PSA; [1]): Inactive

Cc1ccc2ccc(-n3ccc4cccc(C)c43)nc2c1 [Compound 13649]
eGFP IC50 (androgen receptor (AR)): Inactive
PSA IC50 (PSA; [1]): Inactive

COc1ccc2[nH]cc(C3Nc4ccccc4C3(C)C)c2c1 (centres unmarked) [Compound 13536]
IC50 (androgen receptor (AR)): 2200 nM
IC50 (PSA; [2]): 2520 nM

Cc1cccc2c(-c3ccc4c(Br)ccc(Br)c4n3)c[nH]c12 [Compound 13679]
eGFP IC50 (androgen receptor (AR)): Inactive
PSA IC50 (PSA; [1]): Inactive

Cc1ccccc1CSc1c(C)[nH]c2ccccc12 [Compound 13412]
IC50 (androgen receptor (AR)): 900 nM
IC50 (PSA; [3]): 1230 nM

Cc1cccc2c(-c3ccc4cccc(Br)c4n3)c[nH]c12 [13 677]
IC50 (PSA; Homo sapiens, 72 h, same plates as eGFP assay, media after 3 days, read-out: IC50 (PSA)): 110 nM

CNC(=O)c1cccc2nc(-c3c[nH]c4c(F)c(F)c(F)cc34)ccc12 [Compound 13754]
IC50 (PSA; [3]): 51 nM

Cc1cccc2c(-c3ccc4c(C(F)(F)F)cccc4n3)c[nH]c12 [Compound 13602]
IC50 (PSA; [2]): 182 nM

Cc1cccc2c(-c3ccc4cccc(Br)c4n3)c[nH]c12 [Compound 13677]
IC50 (PSA; [2]): 110 nM

Fc1ccc2c(-c3ccc4ccccc4n3)c[nH]c2c1F [Compound 13618]
IC50 (PSA; [2]): 130 nM

Clc1cccc2c(-c3ccc4ccccc4n3)c[nH]c12 [Compound 13622]
IC50 (PSA; [2]): 75 nM

Cc1cc(Cl)c2[nH]cc(-c3ccc4ccccc4n3)c2c1 [Compound 13625]
IC50 (PSA; [2]): 1230 nM

Cc1cccc2c(-c3ccc4ccccc4n3)c[nH]c12 [Compound 13566]
IC50 (PSA; [2]): 11 nM

Cc1cccc2c(-c3ccc4cccc(F)c4n3)c[nH]c12 [Compound 13692]
IC50 (PSA; [2]): 82 nM

c1ccc(-c2nc3ccccc3[nH]2)cc1 [Compound 13686]
PSA IC50 (PSA; [1]): Inactive

Fc1cc2c(-c3ccc4c(C(F)(F)F)cccc4n3)c[nH]c2c(F)c1F [Compound 13761]
IC50 (PSA; [2]): 383 nM

CNC(=O)c1cccc2nc(-c3c[nH]c4c(C)cccc34)ccc12 [Compound 13597]
IC50 (PSA; [2]): 132 nM

Cc1cccc2c(-c3ccc4ccccc4n3)c[nH]c12 [13 566]
IC50 (PSA; Homo sapiens, 72 h, read-out: IC50 (PSA)): 56 nM

Cc1cccc2c(-c3ccc4ccc(Cl)cc4n3)c[nH]c12 [Compound 13606]
IC50 (PSA; [2]): 1430 nM

Cc1cccc2c(-c3cnc4ccccc4c3)c[nH]c12 [Compound 13643]
IC50 (PSA; [2]): 156 nM

Fc1cc(Cl)cc2c(-c3ccc4ccccc4n3)c[nH]c12 [Compound 13641]
IC50 (PSA; [2]): 403 nM

Clc1cc(Cl)c2[nH]cc(-c3ccc4ccccc4n3)c2c1 [Compound 13627]
IC50 (PSA; [2]): 1160 nM

Cc1cc(F)cc2c(-c3ccc4ccccc4n3)c[nH]c12 [Compound 13601]
IC50 (PSA; [2]): 165 nM

Fc1cc(F)c2[nH]cc(-c3ccc4ccccc4n3)c2c1 [Compound 13610]
IC50 (PSA; [2]): 13 nM

Cc1cccc2c(-c3ccc4ccc(F)cc4n3)c[nH]c12 [Compound 13611]
IC50 (PSA; [2]): 121 nM

Cc1ccc(/N=C/c2c[nH]c3ccccc23)cc1 [Compound 13247]
IC50 (PSA; [2]): 430 nM

Cc1ccc2c(-c3ccc4ccccc4n3)c[nH]c2c1 [Compound 13574]
IC50 (androgen receptor (AR)): 2570 nM

Cc1c(F)ccc2c(-c3ccc4ccccc4n3)c[nH]c12 [Compound 13607]
IC50 (PSA; [2]): 87 nM

c1ccc(-c2nc3ccccc3[nH]2)cc1 [13 686]
IC50 (PSA) (PSA; same plates as eGFP assay, media after 3 days): IC50 (PSA) = Inactive

Clc1ccc(Cl)c2c(-c3ccc4ccccc4n3)c[nH]c12 [Compound 13640]
IC50 (androgen receptor (AR)): 12700 nM
